Experimental data published in patent publication US10300051B2, “Cyclopropylamines as LSD1 inhibitors” (priority 2014, dated 2019).

Each compound was assayed against LSD-1 enzyme (Homo sapiens (Human), UniProt O60341). Conditions: 1 nM LSD-1 enzyme, 1 hour preincubation at 25° C., Biotin-labeled Histone H3 peptide substrate.
Format: biochemical
Procedure: Example A: LSD1 Histone Demethylase Biochemical Assay
LANCE LSD1/KDM1A demethylase assay—10 μL of 1 nM LSD-1 enzyme (ENZO BML-SE544-0050) in the assay buffer (50 mM Tris, pH 7.5, 0.01% Tween-20, 25 mM NaCl, 5 mM DTT) were preincubated for 1 hour at 25° C. with 0.8 μL compound/DMSO dotted in black 384 well polystyrene plates. […] Reactions were stopped by addition of 10 μL 1× LANCE Detection Buffer (PerkinElmer CR97-100) supplemented with 1.5 nM Eu-anti-unmodified H3K4 Antibody (PerkinElmer TRF0404), and 225 nM LANCE Ultra Streptavidin (PerkinElmer TRF102) along with 0.9 mM Tranylcypromine-HCl (Millipore 616431). After stopping the reactions plates were incubated for 30 minutes and read on a PHERAstar FS plate reader (BMG Labtech).

Structure (SMILES)	IC50 [nM]
CC(=O)N1CCC(CC#N)(CN[C@@H]2C[C@H]2c2ccccc2)CC1 (relative stereo) [Example 1, (1-Acetyl-4-{[(trans-2-phenylcyclopropyl)amino]methyl}piperidin-4-yl)acetonitrile]	< 100
COC(=O)N1CCC(CC#N)(CN[C@@H]2C[C@H]2c2ccccc2)CC1 (relative stereo) [Example 2, Methyl 4-(cyanomethyl)-4-{[(trans-2-phenylcyclopropyl)amino]methyl}piperidine-1-carboxylate]	< 100
CN(C)C(=O)N1CCC(CC#N)(CN[C@@H]2C[C@H]2c2ccccc2)CC1 (relative stereo) [Example 3, 4-(Cyanomethyl)-N,N-dimethyl-4-{[(trans-2-phenylcyclopropyl)amino]methyl}piperidine-1-carboxamide]	< 100
CS(=O)(=O)N1CCC(CC#N)(CN[C@@H]2C[C@H]2c2ccccc2)CC1 (relative stereo) [Example 4, (1-(Methylsulfonyl)-4-{[(trans-2-phenylcyclopropyl)amino]methyl}piperidin-4-yl)acetonitrile]	< 100
CN1CCC(CC#N)(CN[C@@H]2C[C@H]2c2ccccc2)CC1 (relative stereo) [Example 5, (1-Methyl-4-{[(trans-2-phenylcyclopropyl)amino]methyl}piperidin-4-yl)acetonitrile]	< 100
N#CCC1(CN[C@@H]2C[C@H]2c2ccccc2)CCNCC1 (relative stereo) [Example 6, (4-{[(trans-2-Phenylcyclopropyl)amino]methyl}piperidin-4-yl)acetonitrile]	< 100
N#CCC1(CN[C@@H]2C[C@H]2c2ccccc2)CCN(Cc2cccnc2)CC1 (relative stereo) [Example 7, [4-{[(trans-2-Phenylcyclopropyl)amino]methyl}-1-(pyridin-3-ylmethyl)piperidin-4-yl]acetonitrile]	< 100
O=C(O)CCN1CCC(CN[C@@H]2C[C@H]2c2ccccc2)(Cc2ccc(F)cc2)CC1 [Example 8, 3-[4-(4-fluorobenzyl)-4-({[(1R,2S)-2-phenylcyclopropyl]amino}methyl)piperidin-1-yl]propanoic Acid]	< 100
CN(C)C(=O)CCN1CCC(CN[C@@H]2C[C@H]2c2ccccc2)(Cc2ccc(F)cc2)CC1 [Example 10, 3-[4-(4-fluorobenzyl)-4-({[(1R,2S)-2-phenylcyclopropyl]amino}methyl)piperidin-1-yl]-N,N-dimethylpropanamide]	< 100
Fc1ccc(CC2(CN[C@@H]3C[C@H]3c3ccccc3)CCNCC2)cc1 [Example 11, (1R,2S)—N-{[4-(4-fluorobenzyl)piperidin-4-yl]methyl}-2-phenylcyclopropanamine]	< 100
Fc1ccc(CC2(CN[C@H]3C[C@@H]3c3ccccc3)CCNCC2)cc1 [Example 12, (1S,2R)—N-{[4-(4-fluorobenzyl)piperidin-4-yl]methyl}-2-phenylcyclopropanamine]	< 100
O=C(O)CN1CCC(CN[C@@H]2C[C@H]2c2ccccc2)(Cc2ccc(F)cc2)CC1 [Example 13, [4-(4-fluorobenzyl)-4-({[(1R,2S)-2-phenylcyclopropyl]amino}methyl)piperidin-1-yl]acetic]	< 100
C[C@H](N)C(=O)N1CCC(CN[C@@H]2C[C@H]2c2ccccc2)(Cc2ccc(F)cc2)CC1 [Example 14, (1R,2S)—N-{[1-[(2S)-2-aminopropanoyl]-4-(4-fluorobenzyl)piperidin-4-yl]methyl}-2-phenylcyclopropanamine]	< 100
C[C@@H](N)C(=O)N1CCC(CN[C@@H]2C[C@H]2c2ccccc2)(Cc2ccc(F)cc2)CC1 [Example 15, (1R,2S)—N-{[1-[(2R)-2-aminopropanoyl]-4-(4-fluorobenzyl)piperidin-4-yl]methyl}-2-phenylcyclopropanamine]	< 100
O=C(O)CCN1CCC(CN[C@@H]2C[C@H]2c2ccccc2)(Cc2ccccc2F)CC1 [Example 16, 3-[4-(2-fluorobenzyl)-4-({[(1R,2S)-2-phenylcyclopropyl]amino}methyl)piperidin-1-yl]propanoic Acid]	< 100
O=C(O)CCN1CCC(CN[C@@H]2C[C@H]2c2ccccc2)(Cc2cccc(F)c2)CC1 [Example 17, 3-[4-(3-fluorobenzyl)-4-({[(1R,2S)-2-phenylcyclopropyl]amino}methyl)piperidin-1-yl]propanoic Acid]	< 100
O=C(O)CCN1CCC(CN[C@@H]2C[C@H]2c2ccccc2)(Cc2ccc(F)cc2F)CC1 [Example 18, 3-[4-(2,4-difluorobenzyl)-4-({[(1R,2S)-2-phenylcyclopropyl]amino}methyl)piperidin-1-yl]propanoic Acid]	< 100

Structure (SMILES)	IC50 [nM]
O=C(O)CCN1CCC(CN[C@@H]2C[C@H]2c2ccccc2)(Cc2cccc(F)c2F)CC1 [Example 19, 3-[4-(2,3-difluorobenzyl)-4-({[(1R,2S)-2-phenylcyclopropyl]amino}methyl)piperidin-1-yl]propanoic Acid]	< 100
O=C(O)CCN1CCC(CN[C@@H]2C[C@H]2c2ccccc2)(Cc2ccc(F)c(F)c2)CC1 [Example 20, 3-[4-(3,4-difluorobenzyl)-4-({[(1R,2S)-2-phenylcyclopropyl]amino}methyl)piperidin-1-yl]propanoic Acid]	< 100
COCC1(CN[C@@H]2C[C@H]2c2ccccc2)CCNCC1 [Example 21, (1R,2S)—N-{[4-(methoxymethyl)piperidin-4-yl]methyl}-2-phenylcyclopropanamine]	< 100
COCC1(CN[C@@H]2C[C@H]2c2ccccc2)CCN(CCC(=O)O)CC1 [Example 22, 3-[4-(methoxymethyl)-4-({[(1R,2S)-2-phenylcyclopropyl]amino}methyl)piperidin-1-yl]propanoic Acid]	< 100
COCC1(CN[C@@H]2C[C@H]2c2ccccc2)CCN(CCC(=O)N(C)C)CC1 [Example 23, 3-[4-(methoxymethyl)-4-({[(1R,2S)-2-phenylcyclopropyl]amino}methyl)piperidin-1-yl]-N,N-dimethylpropanamide]	< 100
CNC(=O)CCN1CCC(CN[C@@H]2C[C@H]2c2ccccc2)(COC)CC1 [Example 24, 3-[4-(methoxymethyl)-4-({[(1R,2S)-2-phenylcyclopropyl]amino}methyl)piperidin-1-yl]-N-methylpropanamide]	< 100
N#CCc1ccc(CC2(CN[C@@H]3C[C@H]3c3ccccc3)CCN(CCC(=O)O)CC2)cc1 [Example 25, 3-[4-[4-(cyanomethyl)benzyl]-4-({[(1R,2S)-2-phenylcyclopropyl]amino}methyl)piperidin-1-yl]propanoic Acid]	< 100
N#CC1(c2ccc(CC3(CN[C@@H]4C[C@H]4c4ccccc4)CCN(CCC(=O)O)CC3)cc2)CC1 [Example 26, 3-[4-[4-(1-cyanocyclopropyl)benzyl]-4-({[(1R,2S)-2-phenylcyclopropyl]amino}methyl)piperidin-1-yl]propanoic Acid]	< 100
Cn1cc(-c2cccc(CC3(CN[C@@H]4C[C@H]4c4ccccc4)CCN(CCC(=O)O)CC3)c2)cn1 [Example 27, 3-[4-[3-(1-methyl-1H-pyrazol-4-yl)benzyl]-4-({[(1R,2S)-2-phenylcyclopropyl]amino}methyl)piperidin-1-yl]propanoic Acid]	< 100
CN1CCC(CN[C@@H]2C[C@H]2c2ccccc2)(Cc2cccc(C(=O)O)c2)CC1 [Example 28, 3-{[1-methyl-4-({[(1R,2S)-2-phenylcyclopropyl]amino}methyl)piperidin-4-yl]methyl}benzoic Acid]	< 100
CCN1CCC(CN[C@@H]2C[C@H]2c2ccccc2)(Cc2cccc(C(=O)O)c2)CC1 [Example 29, 3-{[1-ethyl-4-({[(1R,2S)-2-phenylcyclopropyl]amino}methyl)piperidin-4-yl]methyl}benzoic Acid]	< 100
O=C(O)c1cccc(CC2(CN[C@@H]3C[C@H]3c3ccccc3)CCN(CC3CC3)CC2)c1 [Example 30, 3-{[1-(cyclopropylmethyl)-4-({[(1R,2S)-2-phenylcyclopropyl]amino}methyl)piperidin-4-yl]methyl}benzoic Acid]	< 100
O=C(O)c1cccc(CC2(CN[C@@H]3C[C@H]3c3ccccc3)CCN(C3CCOCC3)CC2)c1 [Example 31, 3-{[4-({[(1R,2S)-2-phenylcyclopropyl]amino}methyl)-1-(tetrahydro-2H-pyran-4-yl)piperidin-4-yl]methyl}benzoic Acid]	< 100
O=C(O)c1cccc(CC2(CN[C@@H]3C[C@H]3c3ccccc3)CCN(Cc3ccccn3)CC2)c1 [Example 32, 3-{[4-({[(1R,2S)-2-phenylcyclopropyl]amino}methyl)-1-(pyridin-2-ylmethyl)piperidin-4-yl]methyl}benzoic Acid]	< 100
O=C(O)c1cccc(CC2(CN[C@@H]3C[C@H]3c3ccccc3)CCN(Cc3cccnc3)CC2)c1 [Example 33, 3-{[4-({[(1R,2S)-2-phenylcyclopropyl]amino}methyl)-1-(pyridin-3-ylmethyl)piperidin-4-yl]methyl}benzoic Acid]	< 100
CC(C)N1CCC(CN[C@@H]2C[C@H]2c2ccccc2)(Cc2cccc(C(=O)O)c2)CC1 [Example 34, 3-{[1-isopropyl-4-({[(1R,2S)-2-phenylcyclopropyl]amino}methyl)piperidin-4-yl]methyl}benzoic Acid]	< 100
O=C(O)CCN1CCC(CN[C@@H]2C[C@H]2c2ccccc2)(Cc2cccc(O[C@@H]3CCOC3)c2)CC1 [Example 35, 3-(4-({[(1R,2S)-2-phenylcyclopropyl]amino}methyl)-4-{3-[(3R)-tetrahydrofuran-3-yloxy]benzyl}piperidin-1-yl)propanoic Acid]	< 100
